Structures can show the parent of a compound that is named as a salt.
Columns and labels:
Type in all cases: in vivo
colon adenocarcinoma #38 = test: antitumor activity in mice against colon adenocarcinoma #38
Protocol: (§1) Representative examples of the invention were tested for antitumor activity in mice according to the following procedure:
(§2) The animals were pooled, implanted subcutaneously with 30 to 60 mg tumor fragments by 12-gauge trocar, and again pooled before unselective distribution to the various treatment and control groups. For early-stage treatment, chemotherapy was started within 1 to 5 days after tumor implantation while the number of cells was relatively small (10^7 to 10^8 cells). For advanced-stage treatment, chemotherapy was delayed until the tumor became relatively large (200 to 300 mg in size). A 300-mg tumor contains approximately 3×10^8 total cells. […] Tumors were measured with a caliper weekly (or twice weekly for the more rapidly growing tumors). Mice were sacrificed when their tumors reached 1500 mg (i.e., before they can cause the animal discomfort). Tumor weights were estimated from two-dimensional measurements.
(§3) The treatment and control groups were measured when the control group tumors reached approximately 700 to 1200 mg in size (Median of Group). The median tumor weight of each group was determined (including zeros). […] A T/C value <10% is considered to indicate highly significant antitumor activity.
(§4) The results are shown in Table I for pancreatic ductal adenocarcinoma #03 and in Table 2 for colon adenocarcinoma #38.

[1] = test system: pancreatic ductal adenocarcinoma #03; test: antitumor activity in mice against pancreatic ductal adenocarcinoma #03 (Panc 03)
Protocol: as §1, §2, §3, §4

[2] = test system: P388/adriamycin resistant leukemia; test: P388/adriamycin resistant leukemia, cells implanted i.v.
[3] = Table 2, total dose 327 mg/kg, i.v. days 3-6 and p.o. days 7-10
[4] = Table 2, total dose 529 mg/kg, i.v. days 3-6 and p.o. days 7-10
[5] = Table 2, total dose 852 mg/kg, i.v. days 3-6 and p.o. days 7-10
[6] = Table 1, average body weight 25 g, total doses as in E1
[7] = Table 2, i.v., total dose mg/kg by Example: 2:600, 5:960, 6:132, 7:840, 16(a):1000, 18(e):180
[8] = Table 2, i.v., total dose mg/kg by Example: 6:82, 16(a):690, 18(e):120
[9] = 10^5 cells, 200 mg/kg total, i.v. 3 hour infusion days 1, 4
[10] = 10^5 cells, 320 mg/kg total, i.v. 3 hour infusion days 1, 4
[11] = 10^5 cells, 520 mg/kg total, i.v. 3 hour infusion days 1, 4
[12] = Mus musculus, ip, read-out: T/C
[13] = Table 2, i.p., total dose mg/kg by Example: 10:340, 11:518
[14] = Table 2, p.o., total dose mg/kg by Example: 10:460, 11:885
[15] = Table 2, p.o., total dose mg/kg by Example: 10:740, 11:1709
[16] = Table 2, total dose 160 mg/kg i.p.
[17] = Table 2, total dose 200 mg/kg i.p.
[18] = Table 2, total dose 865 mg/kg i.p.
[19] = 10^6 cells, 76 mg/kg total, i.v. […] infusion day 1
[20] = 10^6 cells, 123 mg/kg total, i.v. […] infusion day 1
[21] = 10^6 cells, 198 mg/kg total, i.v. […] infusion day 1
[22] = 10^6 cells, 320 mg/kg total, i.v. […] infusion day 1
[23] = 10^5 cells, 150 mg/kg total, i.v. 3 hour infusion days 1, 4
[24] = 10^5 cells, 300 mg/kg total, i.v. 3 hour infusion days 1, 4
[25] = 10^5 cells, 450 mg/kg total, i.v. 3 hour infusion days 1, 4

## CCN(CC)CCNc1ccc(CN(CC)S(C)(=O)=O)c2sc3ccccc3c(=O)c12 [Example 25, N-[[1-[[2-(Diethylamino)ethyl]amino]-9-oxothioxanthen-4-yl]methyl]-N-ethyl-methanesulfonamide]
Colon adenocarcinoma #38; Mus musculus, read-out: T/C
  response vs control in vivo at 327 mg/kg: 0%
  response vs control in vivo at 529 mg/kg: 0%
  response vs control in vivo at 852 mg/kg: 0%
Colon adenocarcinoma #38; [3]
  Drug Deaths: 0
  Weight Loss: 0.8 g
Colon adenocarcinoma #38; [4]
  Drug Deaths: 0
  Weight Loss: 0.6 g
Colon adenocarcinoma #38; [5]
  Drug Deaths: 4/5
  Weight Loss: 4.8 g
[1]
  T/C: 0%
[1]; [6]
  Weight Loss: 4.6 g
[1]; Table 1, total doses as in E1
  Drug Deaths: 0

## CN(C)CCNc1ccc(CN)c2sc3ccccc3c(=O)c12 [18(e), 4-(Aminomethyl)-l-[[2-dimethylamino)ethyl]amino]-9-oxothioxanthen-9-one dihydrochloride·1/2 hydrate]
Colon adenocarcinoma #38; [7]
  Drug Deaths: 4/5
Colon adenocarcinoma #38; [8]
  Drug Deaths: 0
  Weight Loss: 1.0 g
Colon adenocarcinoma #38; mouse, in vivo, iv
  Weight Loss: 2.2 g
[1]; [6]
  Weight Loss: 1.0 g
[1]; Table 1, total doses as in E1
  Drug Deaths: 0

## CCN(CC)CCNc1ccc(CNC(C)=O)c2sc3ccccc3c(=O)c12 [Example 10, N-[[1-[[2-(Diethylamino)ethyl]amino]-9-oxo-thioxanthen-4-yl]methyl]acetamide]
[2]; [9]
  Drug Deaths: 0/7
  Wt. Loss at Nadir: -1.5 g/mouse
[2]; [10]
  Drug Deaths: 0/5
  Wt. Loss at Nadir: -1.75 g/mouse
[2]; [11]
  Drug Deaths: 3/7
  Wt. Loss at Nadir: -3.75 g/mouse
[2]; iv, 200 mg/kg
  Tumor Cell: 0/7
[2]; iv, 200 mg/kg, 3 h
  % ILS (percentage increase in lifespan): 8%
  Log10 Tumor cell kill: 0.5
[2]; iv, 320 mg/kg
  Tumor Cell: 0/5
[2]; iv, 320 mg/kg, 3 h
  % ILS (percentage increase in lifespan): 23%
  Log10 Tumor cell kill: 1.5
[2]; iv, 520 mg/kg, 3 h
  % ILS (percentage increase in lifespan): 54%
  Log10 Tumor cell kill: 3.5
Colon adenocarcinoma #38; [12]
  response vs control in vivo at 160 mg/kg: 22%
  response vs control in vivo at 200 mg/kg: 24%
  response vs control in vivo at 865 mg/kg: 23%
Colon adenocarcinoma #38; [13]
  Drug Deaths: 0
  Weight Loss: 4.0 g
Colon adenocarcinoma #38; [14]
  Drug Deaths: 0
  Weight Loss: 1.2 g
Colon adenocarcinoma #38; [15]
  Drug Deaths: 2/5
  Weight Loss: 4.0 g
Colon adenocarcinoma #38; [16]
  Drug Deaths: 0
  Weight Loss: 0.6 g
Colon adenocarcinoma #38; [17]
  Drug Deaths: 0
  Weight Loss: 2.3 g
Colon adenocarcinoma #38; [18]
  Drug Deaths: 0
  Weight Loss: 2.0 g
[1]; [6]
  Weight Loss: 2.4 g
[1]; Table 1, total doses as in E1
  Drug Deaths: 0

## CCN(CC)CCNc1ccc(C(N)=O)c2sc3ccccc3c(=O)c12 [Example 7, 1-[[2'-(Diethylamino)ethyl]amino]-9-oxothioxanthene-4-carboxamide]
Colon adenocarcinoma #38; [7]
  Drug Deaths: 0
Colon adenocarcinoma #38; mouse, in vivo, iv
  Weight Loss: 0.6 g
[1]; [6]
  Weight Loss: 3.2 g
[1]; Table 1, total doses as in E1
  Drug Deaths: 1/5

## CCN(CC)CCNc1ccc(CNC(=O)C(F)(F)F)c2sc3ccccc3c(=O)c12 [16(a), N-[[1-[[2-(Diethylamino)ethyl]amino]-9-oxothioxanthen-4-yl]methyl]-trifluoroacetamide]
Colon adenocarcinoma #38; [7]
  Drug Deaths: 0
Colon adenocarcinoma #38; [8]
  Drug Deaths: 0
  Weight Loss: 1.5 g
Colon adenocarcinoma #38; mouse, in vivo, iv
  Weight Loss: 1.2 g
[1]
  T/C: 21%
[1]; [6]
  Weight Loss: +0.8 g
[1]; Table 1, total doses as in E1
  Drug Deaths: 0

## CCN(CC)CCNc1ccc(CNC(=O)c2ccccc2)c2sc3ccccc3c(=O)c12 [Example 11, N-[[1-[[2-(Diethylamino)ethyl]amino]-9-oxothioxanthen-4-yl]methyl]benzamide]
Colon adenocarcinoma #38; [13]
  Drug Deaths: 0
  Weight Loss: 0.8 g
Colon adenocarcinoma #38; [14]
  Drug Deaths: 0
  Weight Loss: 0.8 g
Colon adenocarcinoma #38; [15]
  Drug Deaths: 0
  Weight Loss: 2.0 g
Colon adenocarcinoma #38; ip
  T/C: 39%
Colon adenocarcinoma #38; po
  T/C: 0%
[1]
  T/C: 0%
[1]; [6]
  Weight Loss: 0.8 g
[1]; Table 1, total doses as in E1
  Drug Deaths: 0

## CCN(CC)CCNc1ccc(CNC(=O)OC)c2sc3ccccc3c(=O)c12 [Example 34, Methyl N-[[1-[[2-(diethylamino)ethyl]amino]-9-oxothioxanthen-4-yl]methyl]carbamate]
[2]; [19]
  Drug Deaths: 0/5
  Wt. Loss at Nadir: -0.4 g/mouse
[2]; [20]
  Drug Deaths: 0/5
  Wt. Loss at Nadir: -1.2 g/mouse
[2]; [21]
  Drug Deaths: 0/5
  Wt. Loss at Nadir: -1.2 g/mouse
[2]; [22]
  % ILS (percentage increase in lifespan): toxic
  Drug Deaths: 5/5
  Log10 Tumor cell kill: LD100
  Wt. Loss at Nadir: -3.6 g/mouse
[2]; iv, 76 mg/kg
  % ILS (percentage increase in lifespan): 0%
  Log10 Tumor cell kill: 0
  Tumor Cell: 0/5
[2]; iv, 123 mg/kg
  % ILS (percentage increase in lifespan): 8.3%
  Log10 Tumor cell kill: 0.7
  Tumor Cell: 0/5
[2]; iv, 198 mg/kg
  % ILS (percentage increase in lifespan): 41.7%
  Log10 Tumor cell kill: 3.3
  Tumor Cell: 0/5
[2]; iv, 320 mg/kg
  Tumor Cell: 0/5
[1]; [6]
  Weight Loss: 3.6 g
[1]; Table 1, total doses as in E1
  Drug Deaths: 0

## CCN(C=O)Cc1ccc(NCCN(CC)CC)c2c(=O)c3ccccc3sc12 [Example 13, N-[[1-[[2-(Diethylamino)ethyl]amino]-9-oxothioxanthen-4-yl]methyl]-N-ethylformamide]
[2]; [23]
  Drug Deaths: 0/8
  Wt. Loss at Nadir: -1.75 g/mouse
[2]; [24]
  Drug Deaths: 0/7
  Wt. Loss at Nadir: -1.75 g/mouse
[2]; [25]
  Drug Deaths: 2/7
  Wt. Loss at Nadir: -3.0 g/mouse
[2]; iv, 150 mg/kg, 3 h
  % ILS (percentage increase in lifespan): 8%
  Log10 Tumor cell kill: 0.5
[2]; iv, 300 mg/kg
  Tumor Cell: 0/7
[2]; iv, 300 mg/kg, 3 h
  % ILS (percentage increase in lifespan): 15%
  Log10 Tumor cell kill: 1.0
[2]; iv, 450 mg/kg
  Tumor Cell: 0/7
[2]; iv, 450 mg/kg, 3 h
  % ILS (percentage increase in lifespan): 38%
  Log10 Tumor cell kill: 2.5
[1]
  T/C: 0%
[1]; [6]
  Weight Loss: 2.4 g
[1]; Table 1, total doses as in E1
  Drug Deaths: 0

## CCN(CC)CCNc1ccc(CNC=O)c2sc3ccccc3c(=O)c12 [Example 2, N-[[1-[[2-(Diethylamino)ethyl]amino]-9-oxothioxanthen-4-yl]methyl]formamide]
Colon adenocarcinoma #38; [7]
  Drug Deaths: 0
Colon adenocarcinoma #38; iv
  T/C: 0%
Colon adenocarcinoma #38; mouse, in vivo, iv
  Weight Loss: 2.8 g
[1]
  T/C: 0%
[1]; [6]
  Weight Loss: 2.0 g
[1]; Table 1, total doses as in E1
  Drug Deaths: 0

## CCN(CC)CCCNc1ccc(CNC)c2sc3ccccc3c(=O)c12 [17(f), 1-[[3-(Diethylamino)propyl]amino]-4-(methylaminomethyl)thioxanthen-9-one dihydrochloride 3/2 hydrate]
[1]
  T/C: 17%
[1]; Table 1, total doses as in E1
  Drug Deaths: 0
[1]; mouse, in vivo
  Weight Loss: 2.0 g
